Results taken from patent US20190351012A1, “TARGETING OF INTERFERON-STIMULATED GENE EXPRESSION TO TREAT INTERFERONOPATHIES” (New York University, priority 2018, published 2019).
Entries after “also recorded” stand apart in the source; their conditions may differ.

Assays:
[1] = test system: BRD4; test: Nuclear BRD4 distribution (soluble versus chromatin-bound) by differential salt extraction and western blot in HeLa cells; type: cell-based, human; settings: western blot
Method: (§1) FIG. 5. BRD4 is required for ISG transcription. (A) HeLa cells were either left untreated or treated with IFN-α for 1 h in presence or absence of JQ-1 or HMBA. Using primers spanning intron-exon junctions, nuclear pre-mRNA for ISG54 and γ-actin were quantified by real-time RT-PCR and normalized to GAPDH mRNA. (B) Control and BRD4 KD cells were either left untreated or treated with IFN-α. ISG56 and BRD4 mRNA were quantified using real-time RT-PCR and normalized to GAPDH mRNA abundance. (C) HEK293T cells were transfected with pcDNA3 (Ctl) or Brd4 expression constructs along with a luciferase reporter driven by the ISG54 promoter. 24 h after transfection, cells were either left untreated or treated with IFN-α in the absence or presence of TSA before being assayed for luciferase activity (left panel). HEK293T cells were transfected with pcDNA3 (Ctl) or Brd4 expression constructs along with a luciferase reporter driven by the constitutive RSV promoter and assayed for luciferase activity after 36 h (right panel). (D) Hela cells were either left untreated or treated with IFN-α for 2 h in presence or absence of TSA or Anacardic acid (AA). Nuclear proteins were extracted as a soluble fraction and a chromatin bound fraction and analyzed by western blotting using anti-BRD4, H4-AcK5 and actin antibodies. […] (F) ChIP assays were performed with antibodies against BRD4 and recovered ISG56, Mx1 and IRF9 TSS spanning sequences were quantified by real-time PCR, normalized to input, and represented as fold enrichment over the untreated sample.
BRD4 is recruited to active promoters along with polymerase, and it associates with elongating polymerase to affect transcriptional elongation. […] Cells were treated with IFN in the presence or absence of TSA, and nuclear BRD4 was quantified in soluble versus chromatin-bound fractions by differential salt extraction (FIG. 5D). Most BRD4 was detected in the soluble nucleoplasm fraction in untreated or IFN-treated cells (FIG. 5D, compare lanes 1 and 2 with 5 and 6). […]
(§2) Nuclear extracts were prepared and analyzed by immunoblotting as follows. […]

[2] = test system: ISG54 promoter activity in HEK293T cells; test: ISG54 promoter luciferase reporter in HEK293T cells; type: cell-based, human
Method: as §1, with “24 h after transfection, cells were either left untreated or treated with IFN-α in the absence or presence of TSA before being assayed for luciferase activity (left panel). HEK293T cells were transfected with pcDNA3 (Ctl) or Brd4 expression constructs along with a luciferase reporter driven by the constitutive RSV promoter and assayed for luciferase activity after 36 h (right panel). (D) Hela cells were either left untreated or treated with IFN-α for 2 h in presence or absence of TSA or Anacardic acid (AA).” left out
It has been shown that BRD4 coordinates the recruitment of P-TEFb to regulate transcription of target genes, including ISGs. […] In order to focus on transcriptional events, we again monitored induction of ISG unspliced pre-mRNA. […]
as §2

CC(/C=C/C(=O)NO)=C\[C@@H](C)C(=O)c1ccc(N(C)C)cc1 [TSA, Trichostatin A]
soluble nuclear BRD4 ([1]; IFN-α 2 h): undetectable; also recorded: depletion | histone acetylation (acetylated H4K5) [1]: large increase | IFN-driven ISG54 promoter activity (luciferase) ([2]; HEK293T cells): completely suppressed | Brd4-driven ISG54 promoter expression (luciferase) ([2]; HEK293T cells overexpressing Brd4, with or without TSA and IFN): No significant differences
